For one series, the system named is Anas platyrhynchos. Particulars: oral, mortality.
The test system of the next series is Bibionidae. Particulars: chronic/long-term; duration: 28 days.
The test system of a further series is Colinus virginianus. Particulars: acute; oral; diet; mortality.
A further series has as its system Oncorhynchus mykiss. The conditions noted are these: acute; duration: 96 hours; mortality.
In a further series the test system is Oryctolagus sp. The conditions noted are these: reproduction developmental; body weight.
A further series deals with Pimephales promelas. The conditions noted are these: chronic/long-term; duration: 21 days; growth.
The next series has as its system Tagia sp. The conditions noted are these: acute; duration: 14 days; mortality.

For orientation: NOAEL means the highest tested level that showed no adverse finding.

Converted amounts (≈) assume the structure as drawn.

For the molecule `Oc1ccccc1-c1ccccc1` [2-Phenylphenol], the LD50 was more than 2250 mg/kg-day in the series with Anas platyrhynchos (acute, unspecified) and 2730 mg/kg-day with Rattus norvegicus (acute, oral, mortality). In addition, the LC50 in the series with Anas platyrhynchos (short-term, feed) was more than 1900 mg/kg-day; in the series with Colinus virginianus, more than 2810 mg/kg-day; in the series on Oncorhynchus mykiss, 4 µg/mL (≈ 23.5 µM); in the series with Tagia sp. it was 198 mg/kg. The NOEC in the series with Bibionidae stood at 1.85 mg/L; in the series with Pimephales promelas it was 0.036 mg/L. The NOAEL with Oryctolagus sp. came to 100 mg/kg-day; in the series on Rattus norvegicus (chronic, duration: 2 years, oral, Fischer 344, histopathology: neoplastic), 39 mg/kg-day; in the series with Rattus norvegicus (reproduction developmental), 500 mg/kg-day.

Source of the values: EPA's ToxValDB 9.5 (doi:10.2903/j.efsa.2009.217r).
